According to patent US20210361600A1, “METHODS FOR INDUCING CHONDROGENESIS” (THE SCRIPPS RESEARCH INSTITUTE, priority 2017, published 2021):
Entries after “also recorded” stand apart in the source; their conditions may differ.

What was measured:
SOX9 = test: In vitro chondrogenesis, transcript level by qPCR; type: cell-based, human; settings: for Induction of SOX9: 7-day treatment
Description: (§1) The RNA was exacted using RNeasy kit following the manufacturer's protocol. cDNA was synthesized using SuperScript III first strand synthesis kit and the transcript levels of proteoglycan 4 (PRG4), sex-determining region Y-Box 9 ([…]) and cartilage-oligo matrix protein (COMP) were determined using Taqman gene expression assays (probes) from ThermoFisher.
(§2) ΔΔCT method was applied to calculate the relative abundance of each gene using ([…] as normalizing control using ViiA 7 RUO software (ThermoFisher). The abundance of each gene of each sample was expressed as fold over DMSO-treated controls. n=3. Dose response for each marker gene was analyzed using GraphPad Prism 7 software.

proteoglycan 4 (PRG4) = test: In vitro chondrogenesis, transcript level by qPCR; type: cell-based, human; settings: for Induction of PRG4: 7-day treatment
Description: as §1, §2

[1] = system: cartilage-oligo matrix protein (COMP); test: In vitro chondrogenesis, transcript level by qPCR; type: cell-based, human; settings: for Induction of COMP: 7-day treatment
Description: as §1, §2

[2] = system: Rat Medial Meniscal Tear Model; test: Dose range study of compound A in a rat medial meniscal tear model; type: in vivo, Lewis rats
Description: The vehicle was prepared separately and then added to aliquots of compound A powder, after which the mixture was vortexed and becomes a clear solution. Dosing solutions were prepared for doses ranging from 30 μM to 0.3 μM. Dosing volume was set to 30 μL/knee. Dosing solutions were prepared fresh for each dose. Dosing solutions were verified at the end of the study. The positive control compound FGF-18 stock was reconstituted in 5 mM Tris, pH 8.0 as per manufacturer's instructions. The FGF-18 stock was further diluted in saline to a final concentration of 0.167 mg/mL. Fresh dilutions were prepared twice a week at the time of injection.
Fourteen-week-old male Lewis rats (Charles River, Kingston, N.Y.) were in the weight range of 285-327 g.
Rats were sorted based on body weight into 8 study groups of 15 rats. They were surgerized and enrolled in a staggered fashion across one week (enroll 20 animals per day for 6 days). Animals were anesthetized with a ketamine/xylazine cocktail (50 mg/kg Ketaved—Henry Schein, and 5 mg/kg Xyalzine AniSed, respectively) by intraperitoneal injection, administered appropriate analgesics (Flunixin, 5 mg/kg subcutaneous injection), and the surgical site shaved and disinfected. A small incision was made on the medial right hind knee to expose the collateral ligament. The collateral ligament was transected and the joint capsule opened sufficiently to expose the medial meniscus. The meniscus was transected completely, then the skin incision was closed, and pressure applied to the wound to prevent hematoma development. Animals were allowed to recover on a heated blanket and were returned to their home cages. Sham procedures were carried out in a similar fashion except the medial meniscus was not cut. All surgical procedures were performed aseptically and all procedures were approved by the IACUC. Animals were monitored daily for the following week for postoperative care prior to dosing. Any animals with atypical healing (bruising/hematoma) were removed from the study and replaced with spare animals. Animals were enrolled into the following groups: […]

**Q.** What does the source list for `COCCc1ccc(NC(=O)c2ccccc2NS(C)(=O)=O)cc1` [Compound A, N-(4-(2-methoxyethyl)phenyl)-2-(methylsulfonamido)benzamide]?
**A.** Induction of SOX9 (SOX9; 0.457 nM): 1.022 ± 0.231 fold increase; Induction of SOX9 (SOX9; 1.37 nM): 1.002 ± 0.260 fold increase; Induction of SOX9 (SOX9; 4.11 nM): 3.296 ± 0.719 fold increase; Induction of SOX9 (SOX9; 12.3 nM): 2.505 ± 0.242 fold increase; Induction of SOX9 (SOX9; 37.0 nM): 1.768 ± 0.264 fold increase; Induction of SOX9 (SOX9; 111 nM): 1.977 ± 0.721 fold increase; Induction of SOX9 (SOX9; 333 nM): 4.193 ± 0.765 fold increase; EC50 (SOX9; 168 h, primary human MSCs, 7 days, read-out: EC50 (SOX9 induction)): ~2.2 nM; Induction of PRG4 (proteoglycan 4 (PRG4); 0.457 nM): 1.082 ± 0.493 fold increase; Induction of PRG4 (proteoglycan 4 (PRG4); 1.37 nM): 0.582 ± 0.513 fold increase; Induction of PRG4 (proteoglycan 4 (PRG4); 4.11 nM): 1.795 ± 0.561 fold increase; Induction of PRG4 (proteoglycan 4 (PRG4); 12.3 nM): 2.226 ± 0.378 fold increase; Induction of PRG4 (proteoglycan 4 (PRG4); 37.0 nM): 1.204 ± 0.360 fold increase; Induction of PRG4 (proteoglycan 4 (PRG4); 111 nM): 1.024 ± 0.700 fold increase; Induction of PRG4 (proteoglycan 4 (PRG4); 333 nM): 2.22 ± 0.960 fold increase; Induction of PRG4 (proteoglycan 4 (PRG4); 1000 nM): 2.134 ± 0.785 fold increase; EC50 (proteoglycan 4 (PRG4); 168 h, primary human MSCs, 7 days, read-out: EC50 (PRG4 induction)): ~3.9 nM; Induction of COMP ([1]; 0.457 nM): 1.005 ± 0.100 fold increase; Induction of COMP ([1]; 1.37 nM): 0.776 ± 0.107 fold increase; Induction of COMP ([1]; 4.11 nM): 1.322 ± 0.804 fold increase; Induction of COMP ([1]; 12.3 nM): 2.942 ± 0.575 fold increase; Induction of COMP ([1]; 37.0 nM): 1.356 ± 0.590 fold increase; Induction of COMP ([1]; 111 nM): 0.706 ± 0.193 fold increase; Induction of COMP ([1]; 333 nM): 1.896 ± 0.187 fold increase; Induction of COMP ([1]; 1000 nM): 3.121 ± 0.709 fold increase; EC50 ([1]; 168 h, primary human MSCs, 7 days, read-out: EC50 (COMP induction)): ~4.5 nM; total joint scores without the femur ([2]; 30 μM (0.315 μg/knee) IA once every other week, vs vehicle): significantly improved; also recorded: significant improvement; degree of improvement of total joint score compared with positive control ([2]; 30 μM dose, FGF-18 5 μg/injection twice a week): on par with FGF-18; adverse effects ([2]; IA once every other week, any of the doses tested (30, 10, 3, 1, 0.3 μM)): no adverse effects
